# Assay results as given in PMC6225212, “Synthesis and Pharmacological Evaluation of Novel Silodosin-Based Arylsulfonamide Derivatives as α1A/α1D-Adrenergic Receptor Antagonist with Potential Uroselective Profile” (Molecules : A Journal of Synthetic Chemistry and Natural …, 2018).
# What was measured:
# α1B-ARs = target: T1, α1B-ARs (Homo sapiens, UniProt P35368); parameters: method as in PMID 27658792; key to α1B Profile: ANT—antagonist; AGO—agonist; conditions: cited from earlier work
# T1 sequence (P35368 1-520): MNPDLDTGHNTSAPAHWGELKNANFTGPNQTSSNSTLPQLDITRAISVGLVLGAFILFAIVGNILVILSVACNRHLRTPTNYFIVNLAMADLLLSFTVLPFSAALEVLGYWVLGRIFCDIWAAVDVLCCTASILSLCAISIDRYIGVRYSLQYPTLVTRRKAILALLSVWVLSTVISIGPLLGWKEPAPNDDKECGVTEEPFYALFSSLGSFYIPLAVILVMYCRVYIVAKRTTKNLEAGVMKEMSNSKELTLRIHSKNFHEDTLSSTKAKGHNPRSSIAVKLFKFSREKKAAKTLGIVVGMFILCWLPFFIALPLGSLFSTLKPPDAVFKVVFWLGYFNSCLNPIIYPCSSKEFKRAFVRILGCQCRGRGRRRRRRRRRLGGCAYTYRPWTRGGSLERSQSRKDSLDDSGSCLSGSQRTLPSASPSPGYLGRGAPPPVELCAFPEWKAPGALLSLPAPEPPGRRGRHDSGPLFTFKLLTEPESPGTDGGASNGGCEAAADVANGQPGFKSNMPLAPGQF
# α1A-ARs = target: T2, α1A-ARs (Homo sapiens, UniProt P35348); parameters: method as in PMID 27658792; key to α1A Profile: ANT—antagonist; AGO—agonist; conditions: cited from earlier work
# T2 sequence (P35348 1-466): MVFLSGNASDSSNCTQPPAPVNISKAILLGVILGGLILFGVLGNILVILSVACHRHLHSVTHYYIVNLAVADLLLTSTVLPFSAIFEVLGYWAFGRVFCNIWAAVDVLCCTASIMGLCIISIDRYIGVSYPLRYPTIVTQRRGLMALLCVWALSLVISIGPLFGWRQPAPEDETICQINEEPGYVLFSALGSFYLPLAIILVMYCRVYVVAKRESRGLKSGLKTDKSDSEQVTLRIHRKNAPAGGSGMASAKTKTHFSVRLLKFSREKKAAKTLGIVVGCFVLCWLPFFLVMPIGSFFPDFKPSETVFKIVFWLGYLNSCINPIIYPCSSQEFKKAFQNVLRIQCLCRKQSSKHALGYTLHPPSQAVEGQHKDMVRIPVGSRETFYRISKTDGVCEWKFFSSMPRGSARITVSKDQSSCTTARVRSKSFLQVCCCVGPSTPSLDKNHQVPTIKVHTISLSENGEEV
# [1] = In vitro metabolic stability in rat-liver microsomes (RLM); format: in vitro ADME
# Experimental: In vitro biotransformation assays of selected compounds 9 and 10 were performed using rat-liver microsomes (RLM), potassium-phosphate buffer, NADPH-regenerating system (NADP, glucose-6-phosphate, glucose-6-phosphate dehydrogenase), and levallorphan as internal standard, according to the previously published procedure. Compound I and the drug tamsulosin were used as reference standard. UPLC/MS analysis (Waters Corporation, Milford, MA, USA) was performed to determine the quantity of the starting material left in solution. The in vitro half-time (t1/2) for test compounds was determined from the slope of the linear regression of ln % parent compound remaining versus incubation time. The calculated t1/2 was incorporated into the following equation to obtain intrinsic clearance: (Clint) = (volume of incubation [µL]/protein in the incubation [mg]) × 0.693/t1/2.
# Metabolic stability of tested compound was analyzed using incubation systems, composed of: tested compounds (10 μM), RLMs (microsomes from rat male liver, pooled; 0.2 mg/mL; Sigma Aldrich), NADPH-regenerating system (NADP+, glucose-6-phosphate and glucose-6-phosphate dehydrogenase in 100mM potassium buffer, pH 7.4; all from Sigma Aldrich), and potassium buffer, pH 7.4. […] Firstly, all samples contained incubation mixture (without NADPH-regenerating system) were preincubated in a thermoblock at 37 °C for 10 min. Then reaction was initiated by the addition of NADPH-regenerating system. In control samples NADPH-regenerating system was replaced with potassium buffer. Probes were incubated in thermoblock for 15 and 30 min at 37 °C. After addition of internal standard (levallorphan, 10 μM), the biotransformation process was stopped by addition of perchloric acid (69–72%, by volume). Next, samples were centrifuged (Centrifuge 5427 R, Eppendorf, Hamburg, Germany) and supernatants were analyzed using UPLC/MS (Waters Corporation). All experiments were run in duplicates. Half-life time was evaluated using a nonlinear regression model using Graph Pad Prism software (Graph Pad Software, La Jolla, San Diego, CA, USA) and intrinsic clearance was calculated from the equation Clint = (volume of incubation [μL]/protein in the incubation [mg]) ×∙0.693/t1/2 [33].
# α2-ARs = target: α2-ARs; parameters: method as in PMID 27658792; conditions: [3H]-Clonidine, rat cerebral cortex; ± SEM; cited from earlier work
# α1D-ARs = target: T3, α1D-ARs (Homo sapiens, UniProt P25100); parameters: method as in PMID 27658792; key to α1D Profile: ANT—antagonist; AGO—agonist; conditions: cited from earlier work
# T3 sequence (P25100 1-572): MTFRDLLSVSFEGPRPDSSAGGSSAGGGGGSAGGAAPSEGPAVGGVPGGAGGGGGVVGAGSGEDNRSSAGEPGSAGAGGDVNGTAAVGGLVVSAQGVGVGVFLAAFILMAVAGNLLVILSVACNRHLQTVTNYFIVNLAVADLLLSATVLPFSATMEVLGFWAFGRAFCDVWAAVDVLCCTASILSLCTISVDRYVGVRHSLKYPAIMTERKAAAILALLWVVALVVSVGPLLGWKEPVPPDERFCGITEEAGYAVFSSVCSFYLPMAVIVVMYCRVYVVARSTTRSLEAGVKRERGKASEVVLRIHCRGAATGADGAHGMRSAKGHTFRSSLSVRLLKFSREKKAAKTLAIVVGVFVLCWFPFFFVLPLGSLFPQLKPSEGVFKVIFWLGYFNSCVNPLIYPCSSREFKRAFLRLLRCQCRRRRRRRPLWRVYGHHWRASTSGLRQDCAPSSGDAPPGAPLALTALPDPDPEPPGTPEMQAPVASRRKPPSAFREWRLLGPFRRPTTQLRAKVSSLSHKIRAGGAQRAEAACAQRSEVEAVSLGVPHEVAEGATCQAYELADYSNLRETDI
smiles,measurement,setting,value
CC(C)Oc1ccccc1OCCN1CCC(CNS(=O)(=O)c2cccc(Cl)c2F)CC1 [Compound I],IC50,α1B-ARs; antagonist mode,42.1 nM
same,α1B Profile,α1B-ARs; functional profile,ANT
same,IC50,α1A-ARs; antagonist mode,11.1 nM
same,α1A Profile,α1A-ARs; functional profile,ANT ^b
same,Major Metabolic Pathway,[1]; RLM,N-dealkylation
same,microsomal CLint at 10 μM,"[1]; male, rat, rat liver microsomes, pH 7.4, RLM 0.2 mg/mL, compound 10 μM, 37 °C",87 µL/min/mg
same,half-life at 10 μM,"[1]; male, rat, rat liver microsomes, pH 7.4, RLM 0.2 mg/mL, compound 10 μM, 37 °C, read-out: t½",40 min
same,Ki,α2-ARs,1210 ± 99 nM
same,IC50,α1D-ARs; antagonist mode,15.1 nM
same,α1D Profile,α1D-ARs; functional profile,ANT
